Data from patent US20060069132A1, “Azolecarboxamide herbicides” (priority 2004, published 2006).

Assays:
barnyardgrass [1] = assay: Test B pre-/postemergence herbicide test; assay type: in vivo, Echinochloa crus-galli; conditions: Postemergence, scale 0 (no effect) to 100 (complete control)
Procedure, shortened: (§1)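 Formulation: non-phytotoxic solvent mix with surfactant. Timing: preemergence on seed and postemergence on 2–18 cm plants, applied concurrently. Readout after 13–15 d greenhouse: visual 0–100 control rating against controls.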

wheat = assay: Test B postemergence herbicide test; assay type: in vivo, Triticum aestivum; design: key to Wheat plant response rating: 0 = no effect, 100 = complete control
Procedure, shortened: (§2)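 Postemergence plants were sprayed with formulated test chemicals at 2 to 18 cm height (1- to 4-leaf stage); paddy species were grown to the 2-leaf stage. After 13 to 15 days in a greenhouse, injury was rated visually against untreated controls on a 0–100 scale (0 = no effect, 100 = complete control).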

Surinam grass = assay: Test B pre-/postemergence herbicide test; assay type: in vivo, Urochloa decumbens
Procedure, shortened: (§3)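 Visual rating, 0 (no effect) to 100 (complete control), versus untreated controls after 13–15 d in greenhouse. Pre- and postemergence applications (postemergence plants 2–18 cm, 1–4 leaves); flooded paddy arm at 2-leaf stage. Compounds in non-phytotoxic solvent plus surfactant.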

ducksalad = assay: Test B flooded paddy test; assay type: in vivo, Heteranthera limosa; conditions: 125 g ai/ha, scale 0 to 100 (0 no effect, 100 complete control)
Procedure, shortened: (§4)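 Scale 0–100: zero equals no visible effect, 100 complete control, judged by eye relative to controls. Timing: 13 to 15 days in greenhouse post-treatment. Growth stage at spraying: two leaves (paddy) or one to four leaves, 2–18 cm (postemergence).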

giant foxtail = assay: Test B pre-/postemergence herbicide test; assay type: in vivo, Setaria faberi
Procedure, shortened: as §3

pigweed = assay: Test B pre-/postemergence herbicide test; assay type: in vivo, Amaranthus retroflexus
Procedure, shortened: as §3

lambsquarters = assay: Test B pre-/postemergence herbicide test; assay type: in vivo, Chenopodium album
Procedure, shortened: as §3

corn = assay: Test B pre-/postemergence herbicide test; assay type: in vivo, Zea mays
Procedure, shortened: as §3

barnyardgrass [2] = assay: Test B flooded paddy test; assay type: in vivo, Echinochloa crus-galli; conditions: 125 g ai/ha, scale 0 to 100 (0 no effect, 100 complete control)
Procedure, shortened: as §4

rice = assay: Test B flooded paddy test; assay type: in vivo, Oryza sativa; conditions: 125 g ai/ha, scale 0 to 100 (0 no effect, 100 complete control)
Procedure, shortened: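 Read-out: visual comparison with controls, scored 0 to 100, where 100 means complete control and 0 no effect. Formulated chemicals were applied postemergence to plants 2–18 cm tall (1- to 4-leaf), or to flooded-paddy plants at the 2-leaf stage, then held 13 to 15 days under glass.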

[3] = tested on: small flower umbrella sedge; assay: Test B flooded paddy test; assay type: in vivo, Cyperus difformis; conditions: 125 g ai/ha, scale 0 to 100 (0 no effect, 100 complete control)
Procedure, shortened: as §4

wild oat = assay: Test B postemergence herbicide test; assay type: in vivo, Avena fatua
Procedure, shortened: as §2

velvetleaf = assay: Test B pre-/postemergence herbicide test; assay type: in vivo, Abutilon theophrasti
Procedure, shortened: as §3

large crabgrass = assay: Test B pre-/postemergence herbicide test; assay type: in vivo, Digitaria sanguinalis
Procedure, shortened: as §3

cocklebur = assay: Test B pre-/postemergence herbicide test; assay type: in vivo, Xanthium strumarium
Procedure, shortened: as §1

morningglory = assay: Test B pre-/postemergence herbicide test; assay type: in vivo, Ipomoea coccinea
Procedure, shortened: as §1

blackgrass = assay: Test B postemergence herbicide test; assay type: in vivo, Alopecurus myosuroides
Procedure, shortened: as §4

[4] = 500 g ai/ha, scale 0 to 100, 0 no effect, 100 complete control, preemergence
[5] = Postemergence, 500 g ai/ha, scale 0 (no effect) to 100 (complete control)
[6] = postemergence, 125 g ai/ha, scale 0 to 100

Structure (SMILES)	Barnyardgrass plant response rating (barnyardgrass [1]; 125 g ai/ha)	Barnyardgrass plant response rating (barnyardgrass [1]; 500 g ai/ha)	Wheat plant response rating (wheat; [4])	Wheat plant response rating (wheat; [5])	Surinam Grass plant response rating (Surinam grass; [5])	Surinam Grass plant response rating (Surinam grass; [6])	Ducksalad plant response rating (ducksalad)	Foxtail, Giant plant response rating (giant foxtail; [5])	Foxtail, Giant plant response rating (giant foxtail; [6])	Pigweed plant response rating (pigweed; [5])	Pigweed plant response rating (pigweed; [6])	Lambsquarters plant response rating (lambsquarters; [5])	Lambsquarters plant response rating (lambsquarters; [6])	Corn plant response rating (corn; [5])	Corn plant response rating (corn; [6])	Barnyardgrass plant response rating (barnyardgrass [2])	Rice plant response rating (rice)	Sedge, Umbrella plant response rating [3]	Oat, Wild plant response rating (wild oat; [5])	Velvetleaf plant response rating (velvetleaf; [5])	other results
Cc1nn(C(C)(C)C)nc1C(=O)Nc1cccc(C(=O)N(C)C)n1 [Compound 436]	0	0	20	20	0	0	0	0	0	10	0	0	0	10	0	0	0	0	30	30	Wheat plant response rating (wheat; [6]): 10; Oat, Wild plant response rating (wild oat; [6]): 10; Velvetleaf plant response rating (velvetleaf; [6]): 0; Crabgrass, Large plant response rating (large crabgrass; [5]): 0; Crabgrass, Large plant response rating (large crabgrass; [6]): 0; Cocklebur plant response rating (cocklebur; [5]): 10; Cocklebur plant response rating (cocklebur; [6]): 0; Morningglory plant response rating (morningglory; [5]): 0; Morningglory plant response rating (morningglory; [6]): 0; Blackgrass plant response rating (blackgrass; [5]): 0; Blackgrass plant response rating (blackgrass; [6]): 0
CCNC(=O)c1cccc(NC(=O)c2nn(C(C)(C)C)nc2C)n1 [Compound 437]	0	30	0	20	20	0	0	30	0	30	20	40	20	30	0	0	0	0	30	20	Velvetleaf plant response rating (velvetleaf; [6]): 0; Crabgrass, Large plant response rating (large crabgrass; [5]): 20; Crabgrass, Large plant response rating (large crabgrass; [6]): 0; Cocklebur plant response rating (cocklebur; [5]): 30; Cocklebur plant response rating (cocklebur; [6]): 10; Morningglory plant response rating (morningglory; [5]): 30; Morningglory plant response rating (morningglory; [6]): 0; Blackgrass plant response rating (blackgrass; [5]): 30; Blackgrass plant response rating (blackgrass; [6]): 0
C=CCNC(=O)c1cccc(NC(=O)c2nn(C(C)(C)C)nc2C)n1 [Compound 438]	0	0	0	30	0	0	0	20	0	30	10	10	10	40	30	0	0	0	40	30	Wheat plant response rating (wheat; [6]): 20; Oat, Wild plant response rating (wild oat; [6]): 30; Velvetleaf plant response rating (velvetleaf; [6]): 0; Crabgrass, Large plant response rating (large crabgrass; [5]): 0; Crabgrass, Large plant response rating (large crabgrass; [6]): 0; Cocklebur plant response rating (cocklebur; [5]): 20; Cocklebur plant response rating (cocklebur; [6]): 20; Morningglory plant response rating (morningglory; [5]): 50; Morningglory plant response rating (morningglory; [6]): 40; Blackgrass plant response rating (blackgrass; [5]): 30; Blackgrass plant response rating (blackgrass; [6]): 20
